These results are taken from US20060068389A1, “Methods and compositions for inhibiting hiv replication” (priority 2002, published 2006).

The test system of experiment [1] is Vpr. The conditions noted are these: typical of multiple assays, FIG. 1.
Text: Accordingly to test if additional anti-glucocorticoids might mediate similar effects, screening assays were developed based on the above Vpr activities which include inhibition of antiviral activity, rescue of the inhibition of cell proliferation and viral transactivation studies. Mifepristone analogues were chosen by SAR analysis.
The test system of another experiment is Rip-1. As to the kind of experiment: Vpr mediated stimulation of Rip-1 nuclear translocation. The format is cell-based, human. From the text:
(§1) The Vpr gene of HIV-1 encodes a 15 KD virion associated protein which functions as a regulator of cellular processes linked to the HIV life cycle. We observed the interaction of a 41-kD cytosolic viral protein R interacting protein-1 (rip-1), associated with Vpr in vitro, and co-localizes in cells ex vivo. […] This protein co-elutes with Vpr in an immunoaffmity system and can be cross-linked with Vpr to form a 58 Kd complex. […] The Vpr mediated stimulation of Rip-1 nuclear translocation, and the viral complementation accomplished with exogenous Vpr protein was mimicked by GR II stimulating steroids. These effects were inhibited by mifepristone, a well-characterized GR II pathway inhibitor. In addition, the levels of LTR-CAT induction attained by Vpr protein were similarly obtained by GR activating steroids. Vpr protein induced CAT activity in cells transfected with a plasmid that contains CAT linked to HIV-1 LTR, pLTR-CAT, and co-localized with Dexamethasone as to the site of its induction of CAT activity from a panel of HIV-1 LTR CAT deletion mutants. In addition, Vpr stimulated the formation of the DNA binding complex which associates with GRE sequences during the glucocorticoid mediated transactivation process.

Experiment [2] has as its system Vpr. As to the kind of experiment: Viral complementation accomplished with exogenous Vpr protein. The format is cell-based, HIV-1.
Text: as §1

Turning to `CC(=O)C1CCC2C3C=CC4=CC(=O)CCC4(C)C3CCC12C` (stereo not shown) [Compound D1, Pregna4,6,-diene-3,20-dione], the “activity in the above assays (Vpr-based screening assays)” value with Vpr [1] is “some activity”.

For the compound `C#C[C@]1(O)CCC2C3CCC4=C(CCC(=O)C4)C3CCC21C` (stereo partly drawn) [Compound D2, 17-α-ethynyl-17-β-hydroxyestr-5(10)-En-3-one], the “activity in the above assays (Vpr-based screening assays)” value with Vpr [1] is on record as “some activity”.

On to `CC#C[C@]1(O)CC[C@H]2[C@@H]3CCC4=CC(=O)CCC4=C3[C@@H](c3ccc(N(C)C)cc3)C[C@@]21C` [mifepristone], for which the “inhibition of Vpr mediated stimulation of Rip-1 nuclear translocation” value in the experiment with Rip-1 is given as “inhibited”. In addition, the “inhibition of viral complementation accomplished with exogenous Vpr protein” value in the experiment on Vpr [2] is reported as “inhibited”.
